Measurements as given in patent publication US8758816B2, “Compositions comprising azelastine and methods of use thereof” (priority 2004, dated 2014).
Where a name gives a salt, the structure may show the parent alone.

Tested on: patients with seasonal allergic rhinitis (SAR)
Assay: MP 428 study: individual symptom severity scores (runny nose, itchy nose, sneezing, congestion; 0-3 scale)
Format: in vivo, human
Conditions: Intent-to-Treat Population
Method: A two-week, randomized, double-blind study, which evaluated the effects of the co-administration of ASTELIN® (azelastine hydrochloride (HCl)) and FLONASE® (fluticasone propionate) compared to either product alone in patients with seasonal allergic rhinitis (SAR) was conducted during the 2006 Texas mountain cedar season. After a 5-day placebo lead-in period, 151 patients with moderate-to-severe allergic rhinitis symptoms were randomized to either: (1) (49 total patients) ASTELIN® (azelastine hydrochloride (HCl)) plus placebo saline nasal spray 2 sprays per nostril, 15 minutes apart, twice daily (AM & PM); (2) (50 total patients) FLONASE® (fluticasone propionate) plus placebo saline nasal spray, 2 sprays per nostril, 15 minutes apart, once daily (AM) and two sessions of placebo saline nasal spray, 2 sprays per nostril, 15 minutes apart (PM); or (3) (52 total patients) the co-administration of ASTELIN® (azelastine hydrochloride (HCl)) 2 sprays per nostril plus FLONASE® (fluticasone propionate) 2 sprays per nostril (AM), 15 minutes apart, and ASTELIN® (azelastine hydrochloride (HCl)) 2 sprays per nostril plus placebo saline nasal spray, 15 minutes apart, (PM) for a 2-week double-blind treatment period.
The primary efficacy variable was the change from baseline in the Total Nasal Symptom Score (TNSS), which comprised sneezing, itchy nose, runny nose, and nasal congestion (individual symptoms scores were assigned a value between 0 and 3, where 0=no symptoms and 3=severe symptoms). This study was not statistically designed to assess the differences between ASTELIN® and FLONASE®.
The results of the clinical trial are summarized and presented in Appendix A hereinbelow and in FIGS. 1-6. […] FIGS. 2-5 show the mean improvement in severity score (0-3 scale) from baseline for the symptoms of runny nose, itchy nose, sneezing and congestion, respectively.

SMILES: CN1CCCC(n2nc(Cc3ccc(Cl)cc3)c3ccccc3c2=O)CC1 (racemic) [Azelastine, (±)-1-(2H)-phthalazinone, 4-[(4-chlorophenyl)methyl]-2-(hexahydro-1-methyl-1H-azepin-4-yl)-, mono-hydrochloride]
- Change from Baseline in AM and PM Combined Nasal Symptom Score: Congestion, LS Mean (Day 9): −1.20
- Change from Baseline in AM and PM Combined Nasal Symptom Score: Congestion, Mean (Day 9): −1.23
- Change from Baseline in AM and PM Combined Nasal Symptom Score: Congestion, Median (Day 9): −1.00
- Change from Baseline in AM and PM Combined Nasal Symptom Score: Itchy Nose, LS Mean (Day 9): −1.29
- Change from Baseline in AM and PM Combined Nasal Symptom Score: Itchy Nose, Mean (Day 9): −1.27
- Change from Baseline in AM and PM Combined Nasal Symptom Score: Itchy Nose, Median (Day 9): −0.93
- Change from Baseline in AM and PM Combined Nasal Symptom Score: Runny Nose, LS Mean (Day 9): −1.14
- Change from Baseline in AM and PM Combined Nasal Symptom Score: Runny Nose, Mean (Day 9): −1.15
- Change from Baseline in AM and PM Combined Nasal Symptom Score: Runny Nose, Median (Day 9): −0.90
- Change from Baseline in AM and PM Combined Nasal Symptom Score: Sneezing, LS Mean (Day 9): −1.72
- Change from Baseline in AM and PM Combined Nasal Symptom Score: Sneezing, Mean (Day 9): −1.73
- Change from Baseline in AM and PM Combined Nasal Symptom Score: Sneezing, Median (Day 9): −1.67
- Percent Change from Baseline in AM and PM Combined Nasal Symptom Score: Congestion, LS Mean (Day 9): −21.68%
- Percent Change from Baseline in AM and PM Combined Nasal Symptom Score: Congestion, Mean (Day 9): −22.05%
- Percent Change from Baseline in AM and PM Combined Nasal Symptom Score: Congestion, Median (Day 9): −18.64%
- Percent Change from Baseline in AM and PM Combined Nasal Symptom Score: Itchy Nose, LS Mean (Day 9): −27.69%
- Percent Change from Baseline in AM and PM Combined Nasal Symptom Score: Itchy Nose, Mean (Day 9): −26.97%
- Percent Change from Baseline in AM and PM Combined Nasal Symptom Score: Itchy Nose, Median (Day 9): −21.57%
- Percent Change from Baseline in AM and PM Combined Nasal Symptom Score: Runny Nose, LS Mean (Day 9): −23.07%
- Percent Change from Baseline in AM and PM Combined Nasal Symptom Score: Runny Nose, Mean (Day 9): −23.25%
- Percent Change from Baseline in AM and PM Combined Nasal Symptom Score: Runny Nose, Median (Day 9): −21.74%
- Percent Change from Baseline in AM and PM Combined Nasal Symptom Score: Sneezing, LS Mean (Day 9): −36.31%
- Percent Change from Baseline in AM and PM Combined Nasal Symptom Score: Sneezing, Mean (Day 9): −36.04%
- Percent Change from Baseline in AM and PM Combined Nasal Symptom Score: Sneezing, Median (Day 9): −35.48%
- Change from Baseline in AM and PM Combined Nasal Symptom Score: Congestion, LS Mean (Day 10): −1.12
- Change from Baseline in AM and PM Combined Nasal Symptom Score: Congestion, Mean (Day 10): −1.17
- Change from Baseline in AM and PM Combined Nasal Symptom Score: Congestion, Median (Day 10): −1.00
- Change from Baseline in AM and PM Combined Nasal Symptom Score: Itchy Nose, LS Mean (Day 10): −1.35
- Change from Baseline in AM and PM Combined Nasal Symptom Score: Itchy Nose, Mean (Day 10): −1.35
- Change from Baseline in AM and PM Combined Nasal Symptom Score: Itchy Nose, Median (Day 10): −1.10
- Change from Baseline in AM and PM Combined Nasal Symptom Score: Runny Nose, LS Mean (Day 10): −1.11
- Change from Baseline in AM and PM Combined Nasal Symptom Score: Runny Nose, Mean (Day 10): −1.13
- Change from Baseline in AM and PM Combined Nasal Symptom Score: Runny Nose, Median (Day 10): −0.83
- Change from Baseline in AM and PM Combined Nasal Symptom Score: Sneezing, LS Mean (Day 10): −1.70
- Change from Baseline in AM and PM Combined Nasal Symptom Score: Sneezing, Mean (Day 10): −1.71
- Change from Baseline in AM and PM Combined Nasal Symptom Score: Sneezing, Median (Day 10): −1.75
- Percent Change from Baseline in AM and PM Combined Nasal Symptom Score: Congestion, LS Mean (Day 10): −20.32%
- Percent Change from Baseline in AM and PM Combined Nasal Symptom Score: Congestion, Mean (Day 10): −20.94%
- Percent Change from Baseline in AM and PM Combined Nasal Symptom Score: Congestion, Median (Day 10): −16.67%
- Percent Change from Baseline in AM and PM Combined Nasal Symptom Score: Itchy Nose, LS Mean (Day 10): −29.83%
- Percent Change from Baseline in AM and PM Combined Nasal Symptom Score: Itchy Nose, Mean (Day 10): −29.56%
- Percent Change from Baseline in AM and PM Combined Nasal Symptom Score: Itchy Nose, Median (Day 10): −21.57%
- Percent Change from Baseline in AM and PM Combined Nasal Symptom Score: Runny Nose, LS Mean (Day 10): −22.00%
- Percent Change from Baseline in AM and PM Combined Nasal Symptom Score: Runny Nose, Mean (Day 10): −22.22%
- Percent Change from Baseline in AM and PM Combined Nasal Symptom Score: Runny Nose, Median (Day 10): −16.67%
- Percent Change from Baseline in AM and PM Combined Nasal Symptom Score: Sneezing, LS Mean (Day 10): −41.13%
- Percent Change from Baseline in AM and PM Combined Nasal Symptom Score: Sneezing, Mean (Day 10): −40.82%
- Percent Change from Baseline in AM and PM Combined Nasal Symptom Score: Sneezing, Median (Day 10): −38.78%
- Change from Baseline in AM and PM Combined Nasal Symptom Score: Congestion, LS Mean (Day 11): −1.18
- Change from Baseline in AM and PM Combined Nasal Symptom Score: Congestion, Mean (Day 11): −1.23
- Change from Baseline in AM and PM Combined Nasal Symptom Score: Congestion, Median (Day 11): −0.92
- Change from Baseline in AM and PM Combined Nasal Symptom Score: Itchy Nose, LS Mean (Day 11): −1.39
- Change from Baseline in AM and PM Combined Nasal Symptom Score: Itchy Nose, Mean (Day 11): −1.37
- Change from Baseline in AM and PM Combined Nasal Symptom Score: Itchy Nose, Median (Day 11): −1.10
- Change from Baseline in AM and PM Combined Nasal Symptom Score: Runny Nose, LS Mean (Day 11): −1.35
- Change from Baseline in AM and PM Combined Nasal Symptom Score: Runny Nose, Mean (Day 11): −1.38
- Change from Baseline in AM and PM Combined Nasal Symptom Score: Runny Nose, Median (Day 11): −1.10
- Change from Baseline in AM and PM Combined Nasal Symptom Score: Sneezing, LS Mean (Day 11): −1.79
- Change from Baseline in AM and PM Combined Nasal Symptom Score: Sneezing, Mean (Day 11): −1.79
- Change from Baseline in AM and PM Combined Nasal Symptom Score: Sneezing, Median (Day 11): −1.55
- Percent Change from Baseline in AM and PM Combined Nasal Symptom Score: Congestion, LS Mean (Day 11): −20.72%
- Percent Change from Baseline in AM and PM Combined Nasal Symptom Score: Congestion, Mean (Day 11): −21.53%
- Percent Change from Baseline in AM and PM Combined Nasal Symptom Score: Congestion, Median (Day 11): −16.67%
- Percent Change from Baseline in AM and PM Combined Nasal Symptom Score: Itchy Nose, LS Mean (Day 11): −30.38%
- Percent Change from Baseline in AM and PM Combined Nasal Symptom Score: Itchy Nose, Mean (Day 11): −29.59%
- Percent Change from Baseline in AM and PM Combined Nasal Symptom Score: Itchy Nose, Median (Day 11): −22.33%
- Percent Change from Baseline in AM and PM Combined Nasal Symptom Score: Runny Nose, LS Mean (Day 11): −25.36%
- Percent Change from Baseline in AM and PM Combined Nasal Symptom Score: Runny Nose, Mean (Day 11): −25.83%
- Percent Change from Baseline in AM and PM Combined Nasal Symptom Score: Runny Nose, Median (Day 11): −21.57%
- Percent Change from Baseline in AM and PM Combined Nasal Symptom Score: Sneezing, LS Mean (Day 11): −43.40%
- Percent Change from Baseline in AM and PM Combined Nasal Symptom Score: Sneezing, Mean (Day 11): −42.70%
- Percent Change from Baseline in AM and PM Combined Nasal Symptom Score: Sneezing, Median (Day 11): −38.78%
- Change from Baseline in AM and PM Combined Nasal Symptom Score: Congestion, LS Mean (Day 12): −1.21
- Change from Baseline in AM and PM Combined Nasal Symptom Score: Congestion, Mean (Day 12): −1.27
- Change from Baseline in AM and PM Combined Nasal Symptom Score: Congestion, Median (Day 12): −1.00
- Change from Baseline in AM and PM Combined Nasal Symptom Score: Itchy Nose, LS Mean (Day 12): −1.33
- Change from Baseline in AM and PM Combined Nasal Symptom Score: Itchy Nose, Mean (Day 12): −1.33
- Change from Baseline in AM and PM Combined Nasal Symptom Score: Itchy Nose, Median (Day 12): −1.00
- Change from Baseline in AM and PM Combined Nasal Symptom Score: Runny Nose, LS Mean (Day 12): −1.22
- Change from Baseline in AM and PM Combined Nasal Symptom Score: Runny Nose, Mean (Day 12): −1.25
- Change from Baseline in AM and PM Combined Nasal Symptom Score: Runny Nose, Median (Day 12): −0.43
- Change from Baseline in AM and PM Combined Nasal Symptom Score: Sneezing, LS Mean (Day 12): −1.63
- Change from Baseline in AM and PM Combined Nasal Symptom Score: Sneezing, Mean (Day 12): −1.63
- Change from Baseline in AM and PM Combined Nasal Symptom Score: Sneezing, Median (Day 12): −1.73
